Measurements from patent US20090220438A1, “CHROMEN-4-ONE DERIVATIVES AS SELF-TANNING SUBSTANCE” (MERCK PATENT GMBH, priority 2006, published 2009).

Experiments:
[1] = test system: primary normal human melanocytes (R6-NHEM-2); experiment: Melanogenesis assay (melanin content after 240 hours incubation, OD at 405 nm against melanin standard); type: cell-based; conditions: for Melanin: 240 hours incubation
Protocol: The action of the compounds of the formula I as tanning agents is tested through the ability to increase melanin synthesis. The reference used is kojic acid, which acts on melanin synthesis and prevents a possible brown coloration of the skin. It can be seen from Table 1 that the compounds Ia to 1 g according to the invention are distinguished by the fact that—after topical application—they induce the formation of skin-inherent pigments in the skin, increase melanin synthesis in the skin and in this way produce enhanced tanning of the skin. They have no adverse health effects, are non-irritant and easy to handle, and the resultant hue naturally corresponds to that of the natural healthy skin colour. The tanning obtained is light-fast and cannot be washed off since it corresponds to natural tanning. To this end, primary normal human melanocytes (R6-NHEM-2)* are cultivated in 24 microtitre plates (96-well, 120,000 cells per tube). Two additional plates are carried out, one for evaluation of the viability of the cells (standard MTT assay) and a second for protein investigation (using a […] standard protocol). After 50% confluence, the culture medium is replaced by fresh culture medium which comprises either the control solution (KA or IBMX) or the 7 solutions to be investigated. Each experiment is repeated 3 times. The cells are incubated at 37° C. (and 5% CO2) for 240 hours, during which the medium is changed every 3 days. After incubation, monolayers are rinsed, the cells are destroyed, and melanin is extracted by means of a 0.5 M NaOH solution. *NHEM-2=normal human epidermal melanocytes (cell type) The optical density (OD) of each experimentally determined value is measured at 405 nm against the melanin standard (standard curve 0.39 to 100 μg/ml of melanin, Sigma M8631). The measurement results are quoted in μg/ml of melanin and in percent of the negative untreated control.

[2] = Tanning activity of intermediates or precursors (statement, no method given)
[3] = Homo sapiens, Melanocyte, 240 h, 200 μM, percent of the negative untreated control
[4] = Homo sapiens, Melanocyte, 240 h, 8 μM, percent of the negative untreated control
[5] = Homo sapiens, Melanocyte, 240 h, 40 μM, percent of the negative untreated control
[6] = Homo sapiens, Melanocyte, 240 h, 1.6 μM, percent of the negative untreated control

SMILES | Melanin ([1]; 200 μM) | activity at 200 µM [1, 3] | Melanin ([1]; 8 μM) | Melanin ([1]; 40 μM) | activity at 8 µM [1, 4] | activity at 40 µM [1, 5] | Melanin ([1]; 1.6 μM) | activity at 1.6 µM [1, 6] | also measured
CC(C)Cn1c(=O)n(C)c(=O)c2[nH]cnc21 [IBMX, 3-isobutyl-1-methylxanthine, reference compound] | 15.39 µg/mL | 166% | – | – | – | – | – | – | –
COCC(=O)c1c(COC)oc2cc(O)cc(O)c2c1=O [IIa, 5,7-dihydroxy-3-(2-methoxyacetyl)-2-methoxymethyl-1-benzopyran-4-one] | – | – | – | – | – | – | – | – | Tanning activity (in words) [2]: have a tanning activity
COCc1cc(=O)c2c(O)cc(O)cc2o1 [Ia, 5,7-dihydroxy-2-methoxymethylchromen-4-one] | – | – | – | – | – | – | – | – | Melanin ([1]; 50 μM): 17.87 µg/mL; Melanin ([1]; 150 μM): 22.14 µg/mL; Melanin ([1]; 450 μM): 19.98 µg/mL; activity at 50 µM ([1]; Homo sapiens, Melanocyte, 240 h, 50 μM, percent of the negative untreated control): 192%; activity at 150 µM ([1]; Homo sapiens, Melanocyte, 240 h, 150 μM, percent of the negative untreated control): 239%; activity at 450 µM ([1]; Homo sapiens, Melanocyte, 240 h, 450 μM, percent of the negative untreated control): 215%
COCc1oc2cc(O)cc(O)c2c(=O)c1OC [Ib, 5,7-dihydroxy-3-methoxy-2-methoxymethylchromen-4-one] | 25.2 µg/mL | 128% | 20.9 µg/mL | 23.7 µg/mL | 106% | 120% | – | – | –
O=c1c(O)c(CO)oc2cc(O)cc(O)c12 [Ic] | 27.6 µg/mL | 139% | 20.8 µg/mL | 23.8 µg/mL | 105% | 120% | – | – | –
COc1c(C)oc2cc(O)cc(O)c2c1=O [Id, 5,7-dihydroxy-3-methoxy-2-methylchromen-4-one] | – | – | 22.0 µg/mL | 27.0 µg/mL | 112% | 137% | 20.8 µg/mL | 106% | –
Cc1oc2cc(O)cc(O)c2c(=O)c1O [Ie, 2-methyl-3,5,7-trihydroxychromen-4-one] | 27.2 µg/mL | 138% | 20.6 µg/mL | 23.9 µg/mL | 104% | 121% | – | – | –
O=c1ccoc2cc(O)ccc12 [If, 7-hydroxychromen-4-one] | – | – | 20.3 µg/mL | 24.7 µg/mL | 102% | 124% | 19.9 µg/mL | 100% | –
O=c1ccoc2c(O)c(O)ccc12 [Ig, 7,8-dihydroxychromen-4-one] | – | – | 19.8 µg/mL | – | 100% | – | 19.9 µg/mL | 100% | Melanin ([1]; 0.32 μM): 20.7 µg/mL; activity at 0.32 µM ([1]; Homo sapiens, Melanocyte, 240 h, 0.32 μM, percent of the negative untreated control): 104%
O=c1cc(CO)occ1O [Kojic acid, kojic acid, reference compound] | – | – | – | – | – | – | – | – | Melanin ([1]; 560 μM): 5.55 µg/mL; activity at 560 µM ([1]; Homo sapiens, Melanocyte, 240 h, 560 μM, percent of the negative untreated control): 55%
